{"source": "patent US8466203B2", "about": "“Method of stabilizing human eye tissue by reaction with nitrite and related agents such as nitro compounds” (priority 2006, dated 2013)", "key": {"[1]": {"test_system": "porcine cornea", "assay": "Gross stiffness of porcine corneal strips handled with a forceps", "details": "100 mM, pH 7.4, 37° C., 48 hrs", "protocol": "Fresh porcine corneal strips and corneoscleral complexes obtained within 6 hrs of sacrifice and incubated at 37° C. in buffered solutions (pH 7.4) containing 20% Dextran (T500) and either 100 mM NaNO2 or 100 mM of one each of the specified β-nitro alcohols\nThese images were taken from tissues cross-linked with nitrite and the β-nitro alcohols 2-nitroethanol, 2-nitro-1-propanol, and […], for 48 hrs. […] Fresh porcine corneal strips and corneoscleral complexes were obtained within 6 hrs of sacrifice and incubated at 37° C. in buffered solutions (pH 7.4) containing 20% Dextran (T500) and either 100 mM NaNO2 or 100 mM of one each of the β-nitro alcohols. After 48 hrs, the following images were obtained. […] FIGS. 13 (B and D)"}, "[2]": {"test_system": "porcine sclera", "assay": "Thermal shrinkage temperature analysis of porcine scleral strips", "details": "for T50 (temperature at 50% of maximal shrinkage) / T50 Δ (change in 50% shrinkage temperature compared to control) / Ti (temperature at 1% absolute shrinkage): pH 7.4, 37° C., 96 hrs", "description": "(§1) Thermal shrinkage temperature or denaturation temperature (Ts) is a technique that has been used for decades in studying collagen cross-linking. As collagen fibers are progressively heated, a threshold temperature is reached at which point disruption of hydrogen bonding in the collagen molecule triple helix occurs, resulting in unwinding of the triple helices. The denaturation of tertiary protein structure results in a rapid shrinkage of the tissue of up to 80%. This phenomenon can be expressed in various ways including temperature of onset of tissue shrinkage, temperature at maximal tissue shrinkage, and temperature at 50% of maximal tissue shrinkage, for example. In addition, differential scanning calorimetry (DSC) is related to thermal shrinkage temperature analysis and is widely used to evaluate biomaterial cross-linking. Thermal shrinkage temperature is essentially a simplified version of DSC and can be used effectively to screen the cross-linking efficacy of compounds. For the purposes of this study, the onset of shrinkage is considered the Ts and the temperature at which 50% of maximal shrinkage has occurred is T50. Graphs depicting the relationship between degree of shrinkage and temperature indicate differences in degree of cross-linking between groups. Thus, stabilization of collagen fiber structures through non-enzymatic cross-linking increases Ts and T50.\n(§2) This system can perform multiple Ts assays in succession, allowing rapid screening of a number of potential cross-linking agents and conditions. […] Inlet and outlet fittings allow for constant circulation of heated water which is modulated by a digitally controlled water bath equipped with a water pump. The entire box is placed on a digital photo scanner connected to a Windows based computer. Beginning at 50° C. the temperature is raised at a rate of 1° C./min and serial scans are taken at every degree increase in temperature up to 80° C. […] As the tissue shrinks, the images are captured by the scanner. The image files are later analyzed for 2-dimensional area using NIH Image J software and % shrinkage calculations are made using Microsoft Excel for graphing purposes. This method obviates the need for removal of tissue pieces from the water bath with manual micrometer measurements as described by the UVR group (Spoerl, E., et al., 2004).\nUsing this simple, reproducible assay enables the screening of a number of compounds for cross-linking efficacy. This is first performed using porcine eyes because of their low cost. Follow up studies can be performed using human eyes. Porcine eyes are obtained within 6 hrs of sacrifice (Hatfield Meat Packing, Inc., Hatfield Pa.). Eyes showing clear corneas and intact epithelia are chosen for study. […] Each strip is then cross-linked using a nitro agent. […] Opthalmol. 1999; 117:166-169) for 24-96 hrs. Following incubation, the samples are evaluated for degree of cross-linking using the Ts assay as described above.\nFrom the data, Ts curves are generated for each compound and condition studied. Each data point is the average of 3 independent samples."}, "[3]": {"test_system": "porcine cornea", "assay": "Light transmission of cross-linked corneo-scleral complexes", "details": "10 mM, 96 hrs incubation", "method": "Following a 96 hrs incubation period at 10 mM, the corneo-scleral complexes were mounted between 2 pieces of quartz, previously determined to have no ultraviolet absorption. […] The sample was then mounted in a vertical, adjustable stage apparatus specifically designed to accommodate a PC 1000 Fibre Optic Spectrometer (Ocean Optics, Inc.). A xenon lamp was used as a light source and was connected to the upper half of the stage. The lower half was connected to a high sensitivity CCD mounted on a card which is installed in a PC computer. The CCD array detector captures a full wavelength spectrum (i.e. 200-1000 nm).\nThe absorption spectrum for each sample was recorded and exported into Microcal Origin 6.1 for processing. […] The scattering component was subtracted from the observed absorption spectrum by first fitting the scattering (non-absorption) portion of the spectrum (e.g. 700-800 nm) to the formula A=aλ^b, where A is the absorbance, λ is the wavelength, b is the order of the relationship between absorbance and wavelength, and a is a constant. The background signal due to scattering for all other wavelengths is then estimated using the coefficients determined from the fit. […] After scatter correction, the transmission spectrum for each absorption spectrum was calculated according to the Beer-Lambert law (T=10^−A×100%), where T is the transmission and A is the absorbance at each wavelength. […]"}, "[4]": {"test_system": "ARPE-19 cells", "description": "A cytotoxicity study was undertaken to obtain an impression of the level of cellular tolerance to these compounds. For pilot experiments ARPE-19 cells were used. This is an immortal human retinal pigment epithelial cell line commonly used for experiments related to macular degeneration. In these pilot studies, the ARPE-19 cells serve as a surrogate for cytotoxicity experiments. Primary cultures of bovine corneal endothelial cells were also used in the cytotoxicity studies described. Bovine corneal cells have more direct relevance for evaluating potential cytotoxic effects during cross-linking of living eye tissue.\nARPE-19 cells were grown to 80% confluence in 96 well tissue culture plates. The cells were then exposed to varying concentrations of NaNO2 and 2-nitroethanol in their culture medium and evaluated for cell death using trypan blue (TB) staining (0.4% for 5 min) after 24 hrs."}, "[5]": {"test_system": "porcine cornea", "assay": "Thermal shrinkage temperature analysis of porcine corneal strips", "description": "as §1, §2\nUsing this simple, reproducible assay enables the screening of a number of compounds for cross-linking efficacy. This is first performed using porcine eyes because of their low cost. Follow up studies can be performed using human eyes. Porcine eyes are obtained within 6 hrs of sacrifice (Hatfield Meat Packing, Inc., Hatfield Pa.). Eyes showing clear corneas and intact epithelia are chosen for study. […] Each strip is then cross-linked using a nitro agent. The incubation solution is 20% Dextran (T500) [to prevent tissue swelling] in 0.2 M NaH2PO4/Na2HPO4 (pH 7.4) with various concentrations of nitro agent (i.e. 1, 10, and 100 mM). […] The samples are then placed in 2 mL microcentrifuge tubes with 1 mL of incubation solution and reacted in a 34° C. water bath (simulating corneal temperature—Girardin, F., et al., “Relationship between corneal temperature and finger temperature,” Arch. Opthalmol. 1999; 117:166-169) for 24-96 hrs. Following incubation, the samples are evaluated for degree of cross-linking using the Ts assay as described above."}, "[6]": {"test_system": "bovine corneal endothelial cells", "details": "48 hrs exposure"}, "[7]": {"test_system": "porcine sclera", "assay": "Yellowing of cross-linked scleral tissue", "protocol": "Additional β-nitro alcohols related to 2-nitroethanol were also tested for scleral cross-linking efficacy. In addition to 2-nitroethanol, there was 2-nitro-1-propanol, 3-nitro-2-pentanol, and 2-nitrophenol. […] This effect was not blocked by addition of equimolar urea (Table 5)."}}, "note": "Where “and” joins values, the source holds several entries; their conditions need not be identical. Equal values may be shown once. Read-outs that look alike come from different tables or passages of the source."}
{"smiles": "O=[N+]([O-])CCO", "note": "[2-nitroethanol]", "values": [{"measurement": "stiffness change when handled with a forceps", "setting": "[1]", "result": "dramatic stiffness change"}, {"measurement": "T50 (temperature at 50% of maximal shrinkage)", "setting": "[2]; 1 mM reagent", "result": 65.7, "unit": "°C"}, {"measurement": "T50 Δ (change in 50% shrinkage temperature compared to control)", "setting": "[2]; 1 mM reagent", "result": 0.4, "unit": "°C"}, {"measurement": "Ti (temperature at 1% absolute shrinkage)", "setting": "[2]; 1 mM reagent", "result": 62.9, "unit": "°C"}, {"measurement": "Ts shift", "setting": "[2]; 1 mM serially applied over 10 days", "result": "2-3 °C"}, {"measurement": "shift in Ts (in words)", "setting": "[2]; 1 mM, 4 days (96 hrs) without replacing the incubation solution", "result": "did not produce a shift in Ts"}, {"measurement": "T50 shift", "setting": "[2]; 1 mM, incubation solution exchanged daily, 6 days", "result": 1.3, "unit": "°C"}, {"measurement": "T50 shift", "setting": "[2]; 1 mM, incubation solution exchanged daily, 10 days", "result": 3.2, "unit": "°C"}, {"measurement": "T50 shift", "setting": "[2]; 1 mM, incubation solution exchanged daily, 14 days", "result": "5.4 °C and 5.6 °C"}, {"measurement": "T50 (temperature at 50% of maximal shrinkage)", "setting": "[2]; 10 mM reagent", "result": 69.8, "unit": "°C"}, {"measurement": "T50 Δ (change in 50% shrinkage temperature compared to control)", "setting": "[2]; 10 mM reagent", "result": 4.5, "unit": "°C"}, {"measurement": "Ti (temperature at 1% absolute shrinkage)", "setting": "[2]; 10 mM reagent", "result": 67.2, "unit": "°C"}, {"measurement": "maximal increase of Ts", "setting": "[2]; 100 mM", "result": 8, "unit": "°C"}, {"measurement": "T50 (temperature at 50% of maximal shrinkage)", "setting": "[2]; 100 mM reagent", "result": 73.7, "unit": "°C"}, {"measurement": "Ti (temperature at 1% absolute shrinkage)", "setting": "[2]; 100 mM reagent", "result": 70.7, "unit": "°C"}, {"measurement": "T50 shift", "setting": "[2]; 100 mM, 24 hrs of incubation", "result": 1.4, "unit": "°C"}, {"measurement": "T50 shift", "setting": "[2]; 100 mM, 48 hrs of incubation", "result": 2.4, "unit": "°C"}, {"measurement": "T50 shift", "setting": "[2]; 100 mM, 72 hrs of incubation", "result": 5.3, "unit": "°C"}, {"measurement": "blocking of the cross-linking effect by equimolar urea", "setting": "[2]; equimolar urea (nitrous acid trapping agent)", "result": "not blocked"}, {"measurement": "decrease in light transmission, 400-500 nm blue light region", "setting": "[3]", "result": 3.6, "unit": "%"}, {"measurement": "trypan blue (TB) uptake", "setting": "[4]; 1 mM, 24 hrs", "result": "no TB was taken up"}, {"measurement": "trypan blue (TB) uptake", "setting": "[4]; 10 mM, 24 hrs", "result": "all of the cells took up TB"}, {"measurement": "cytotoxic threshold", "setting": "[4]; 24 hrs, trypan blue", "result": "> 1 mM and 1 to 10 mM"}, {"measurement": "highest tolerated level", "setting": "[4]; ARPE-19", "result": 1, "unit": "mM"}, {"measurement": "tolerable level", "setting": "[4]; ARPE-19", "result": 0.0091, "unit": "%"}, {"measurement": "Ts onset shift", "setting": "[5]; 1 mM serially applied over 6 days", "result": "1-2 °C"}, {"measurement": "shift in Ts (in words)", "setting": "[5]; 1 mM, 4 days without replacing the incubation solution", "result": "did not produce a shift in Ts"}, {"measurement": "Ts onset shift", "setting": "[5]; 10 mM", "result": 5, "unit": "°C"}, {"measurement": "Ts onset shift", "setting": "[5]; 100 mM", "result": 8, "unit": "°C"}, {"measurement": "Apoptosis (Annexin V) staining", "setting": "[6]; 0.1 mM", "result": "−"}, {"measurement": "Apoptosis (Annexin V) staining", "setting": "[6]; 0.5 mM", "result": "−"}, {"measurement": "Apoptosis (Annexin V) staining", "setting": "[6]; 0.75 mM", "result": "−"}, {"measurement": "Apoptosis (Annexin V) staining", "setting": "[6]; 1 mM", "result": "−"}, {"measurement": "Apoptosis (Annexin V) staining", "setting": "[6]; 2 mM", "result": "−"}, {"measurement": "Apoptosis (Annexin V) staining", "setting": "[6]; 3 mM", "result": "+"}, {"measurement": "propensity to induce tissue yellowing", "setting": "[7]", "result": "greatest propensity to induce tissue yellowing"}]}
